Measurements: patent publication EP0508425A1, “Bicyclic amides as inhibitors of acyl-coenzyme a: cholesterol acyl transferase” (SCHERING CORPORATION, priority 1991, dated 1992)

What was measured:
[1] = tested on: Hyperlipidemic Hamster; assay: In Vivo Assay of Hypolipidemic Agents Using the Hyperlipidemic Hamster; parameters: species or system Hamsters; settings: oral gavage once daily, seven days, versus control
Method: In Vivo Assay of Hypolipidemic Agents Using the Hyperlipidemic Hamster
Hamsters are separated into groups of six and given a control cholesterol diet (Purina Chow #5001 containing 0.5% cholesterol) for seven days. Diet consumption is monitored to determine dietary cholesterol exposure in the face of test compounds. The animals are dosed with the test compound once daily beginning with the initiaton of diet. Dosing is by oral gavage of 0.2 mL of corn oil alone (control group) or solution (or suspension) of test compound in corn oil. All animals moribund or in poor physical condition are euthanized. After seven days, the animals are anesthetized by IM injection of ketamine and sacrificed by decapitation. Blood is collected into vacutainer tubes containing EDTA for plasma lipid analysis and the liver excised for tissue lipid analysis. Data is reported as percent reduction of lipid versus control.

[2] = tested on: ACAT; assay: ACAT Assay (in vitro); assay type: biochemical; settings: 10 µM test compound; rat liver microsomes
Method: This assay measures the activity of ACAT by measuring the ACAT-mediated transfer of tritiated oleic acid from acyl-CoA to cholesterol to give labelled cholesterol oleate. Rat liver microsomes are used as the source of ACAT. Assays are performed in round bottom microtiterplates using a total incubation volume of 50 µL. Each incubation well receives 10 µl assay buffer (0.5M KHPO₄, 10 µM dithiothreitol, pH 7.4), 7.5 µL of 40 mg/mL BSA (Bovine Serum Albumin) and 12.5 µg of microsomal protein. The test compound (in sufficient amount to bring the final concentration to from 0.1 to 25 µM), reference compound, or vehicle control is added and the final volume brought to 47 µL. The microtiterplate is then floated on the surface of a 37°C water bath for fifteen minutes. Incubations are started by the addition of 3 µL ³H-acyl CoA (1µCi/well, final concentration of 10 µM acyl CoA). The plate is then returned to the water bath for 15 minutes. The incubations are then terminated by application of 15 µL from each incubation to individual lanes on a thin layer plate (Silica Gel GF 20 x 20 cm). Standards are applied to several lanes so that the cholesterol ester band can be identified. After drying, the plates are eluted with 90:10:1 petroleum ether:ether:HOAc. The standards are visualized via iodine vapor, and the regions corresponding to cholesterol ester are scraped into 7 mL scintillation vials. 4 mL of scintillant are added to each vial, and the radioactivity quantified. Background count is determined by the boiled controls. Full activity is determined by activity in the presence of vehicle. The percent inhibition is calculated by subtracting the background from both control and test samples, and the test value is calculated as a percentage of the control. For IC₅₀ determinations, the inhibition is plotted against drug doses on a log scale and the concentration at which 50% inhibition is obtained is determined.

Compound	% Reduction in cholesteryl esters (dose in mpk) ([1]; dose 50 mpk)	ACAT % Inhibition dose = 10 µM [2] [%]	% Reduction in cholesteryl esters (dose in mpk) ([1]; dose 10 mpk)	% Reduction in cholesteryl esters (dose in mpk) ([1]; dose 25 mpk) [%]
COc1ccc([C@H]2CCc3ccccc3[C@H]2NC(=O)C(c2ccccc2)c2ccccc2)cc1 (relative stereo) [Example 1, cis-N-[-2-(4'-methoxyphenyl)-1,2,3,4-tetrahydronaphthalen-1-yl]-α-phenylbenzeneacetamide]	0 (50) %	–	–	–
COc1ccc([C@H]2Cc3ccccc3[C@H]2NC(=O)C(c2ccccc2)c2ccccc2)cc1 (relative stereo) [Example 2, cis-N-[2-(4'-methoxyphenyl)indanyl]-α-phenylbenzeneacetamide]	-17 (50) %	96	–	–
O=C(N[C@@H]1c2ccccc2C[C@@H]1c1ccc(O)cc1)C(c1ccccc1)c1ccccc1 (relative stereo) [Example 3, cis-N-[2-(4'-hydroxyphenyl)indanyl]-α-phenylbenzeneacetamide]	-89%	99	-71%	-87.5
CCCCCCCC/C=C\CCCCCCCC(=O)N[C@@H]1c2ccccc2CC[C@H]1c1ccc(O)cc1 (relative stereo) [Example 4, trans-N-[2-(4'-hydroxyphenyl)-1,2,3,4-tetrahydronaphth-1-yl]oleamide]	0 (50) %	94	–	–
Nc1ccc([C@@H]2Cc3ccccc3[C@H]2NC(=O)C(c2ccccc2)c2ccccc2)cc1 (relative stereo) [Example 5, trans-N-[2-(4'-aminophenyl)indanyl]-α-phenylbenzeneacetamide]	–	94	–	–
Nc1cccc([C@H]2Cc3ccccc3[C@H]2NC(=O)C(c2ccccc2)c2ccccc2)c1 (relative stereo) [Example 5A, cis-N-[2-(3'-aminophenyl)-indanyl]-α-phenylbenzeneacetamide]	–	95	0 (10) %	–
COc1ccc([C@@H]2CCc3ccccc3[C@H]2NC(=O)N(c2ccccc2)c2ccccc2)cc1 (relative stereo) [Example 6, trans-N'-[2-(4'-methoxyphenyl)-1,2,3,4-tetrahydronaphthalen-1-yl]-N,N-diphenylurea]	-16 (50) %	97	–	–
O=C(N[C@@H]1c2ccccc2C[C@@H]1c1ccc(O)c(Br)c1)C(c1ccccc1)c1ccccc1 (relative stereo) [Example 7, (+)-cis-N-[2-(3'-bromo-4'-hydroxyphenyl)indanyl]-α-phenylbenzeneacetamide]	-40 (50) %	100	–	–
O=C(N[C@@H]1c2ccccc2C[C@@H]1c1ccc(O)c(Cl)c1)C(c1ccccc1)c1ccccc1 (relative stereo) [Example 8, cis-N-[2-(3'-chloro-4'-hydroxyphenyl)-indanyl]-α-phenylbenzeneacetamide]	-40 (50) %	99	–	–
O=C(N[C@@H]1c2ccccc2C[C@@H]1c1cc(Cl)c(O)c(Cl)c1)C(c1ccccc1)c1ccccc1 (relative stereo) [Example 8A, cis-N-[2-(3',5'-dichloro-4'-hydroxyphenyl)indanyl]-α-phenylbenzeneacetamide]	-14 (50) %	99	–	–
Cc1cc([C@H]2Cc3ccccc3[C@H]2NC(=O)C(c2ccccc2)c2ccccc2)ccc1O (relative stereo) [Example 9, (+)-cis-N-[2-[4'-hydroxy-3'-methylphenyl)indanyl]-α-phenylbenzeneacetamide]	-66 (50) %	98	–	–
Cc1cc([C@H]2Cc3ccccc3[C@H]2NC(=O)C(c2ccccc2)c2ccccc2)cc(C)c1O (relative stereo) [Example 9A, (+)-cis-N-[2-(3',5'-dimethyl-4'-hydroxyphenyl)indanyl]-α-phenylbenzeneacetamide]	-60 (50) %	97	–	–
